Columns and labels:
Test in all cases: NCI-60 screening, one-dose (10 µM) and five-dose, SRB
NCI-H522 = assay type: cell-based, human; settings: Homo sapiens; 10 μM; NCI-H522, Non-Small-Cell Lung Cancer; read-out: Growth percentage
CAKI-1 = assay type: cell-based; settings: Homo sapiens; 10 μM; CAKI-1, Renal Cancer; read-out: Growth percentage
IGROV1 = assay type: cell-based, human; settings: 10 μM; IGROV1, Ovarian Cancer
HL-60(TB) = assay type: cell-based, human; settings: Homo sapiens; for activity at 10 µM: HL-60, 10 μM, HL-60(TB), Leukemia, read-out: Growth percentage
A549/ATCC = assay type: cell-based, human; settings: Homo sapiens, 10 μM, Non-Small-Cell Lung Cancer, read-out: Growth percentage
NCI/ADR-RES = assay type: cell-based, human; settings: Homo sapiens, 10 μM, Ovarian Cancer, read-out: Growth percentage
HOP-62 = assay type: cell-based, human; settings: Homo sapiens, HOP-62, 10 μM; HOP-62, Non-Small-Cell Lung Cancer; read-out: Growth percentage
MALME-3M = assay type: cell-based, human; settings: 10 μM, Melanoma
MCF7 = assay type: cell-based, human; settings: Homo sapiens, MCF7, 10 μM; MCF7, Breast Cancer; read-out: Growth percentage
SK-MEL-28 = assay type: cell-based, human; settings: Homo sapiens; 10 μM; SK-MEL-28, Melanoma; read-out: Growth percentage
SF-539 = assay type: cell-based, human; settings: Homo sapiens, SF-539, 10 μM; SF-539, CNS Cancer; read-out: Growth percentage
SNB-19 = assay type: cell-based; settings: Homo sapiens; 10 μM; SNB-19, CNS Cancer; read-out: Growth percentage
MDA-MB-468 = assay type: cell-based, human; settings: Homo sapiens, MDA-MB-468, 10 μM; MDA-MB-468, Breast Cancer; read-out: Growth percentage
From the text: Control cells Test cells FLD
available usually at NCI library.
An aliquot of frozen drug concentrate is […]

CCRF-CEM = assay type: cell-based, human; settings: Homo sapiens, 10 μM, Leukemia, read-out: Growth percentage
NCI-H322M = assay type: cell-based, human; settings: 10 μM, Non-Small-Cell Lung Cancer
COLO 205 = assay type: cell-based, human; settings: Homo sapiens; 10 μM; COLO 205, Colon Cancer; read-out: Growth percentage
PC-3 = assay type: cell-based, human; settings: Homo sapiens; 10 μM; PC-3, Prostate Cancer; read-out: Growth percentage
HCT-15 = assay type: cell-based, human; settings: Homo sapiens; 10 μM; HCT-15, Colon Cancer; read-out: Growth percentage
NCI-H226 = assay type: cell-based, human; settings: Homo sapiens; 10 μM; NCI-H226, Non-Small-Cell Lung Cancer; read-out: Growth percentage
NCI-H460 = assay type: cell-based, human; settings: Homo sapiens, NCI-H460, 10 μM; NCI-H460, Non-Small-Cell Lung Cancer; read-out: Growth percentage
K-562 = assay type: cell-based, human; settings: Homo sapiens, K562, 10 μM; K-562, Leukemia; read-out: Growth percentage
LOX IMVI = assay type: cell-based, human; settings: Homo sapiens, 10 μM, Melanoma, read-out: Growth percentage
HS 578T = assay type: cell-based, human; settings: Homo sapiens, 10 μM, Breast Cancer, read-out: Growth percentage
OVCAR-8 = assay type: cell-based, human; settings: Homo sapiens; 10 μM; OVCAR-8, Ovarian Cancer; read-out: Growth percentage
U251 = assay type: cell-based, human; settings: Homo sapiens, U-251; 10 μM; U251, CNS Cancer; read-out: Growth percentage
SK-MEL-2 = assay type: cell-based, human; settings: Homo sapiens; 10 μM; SK-MEL-2, Melanoma; read-out: Growth percentage
SF-268 = assay type: cell-based, human; settings: Homo sapiens; 10 μM; SF-268, CNS Cancer; read-out: Growth percentage
SN12C = assay type: cell-based, human; settings: Homo sapiens, 10 μM, Renal Cancer, read-out: Growth percentage
MDA-MB231/ATCC = assay type: cell-based; settings: 10 μM; MDA-MB231/ATCC, Breast Cancer

Compound: CC(=O)c1sc(SCC(=O)N2CCN(c3cc4c(cc3F)c(=O)c(C(=O)O)cn4C3CC3)CC2)nc1C [Compound 4a, 7-(4-(2-((5-Acetyl-4-methylthiazol-2-yl)thio)acetyl)piperazin-1-yl)-1-cyclopropyl-6-fluoro-4-oxo-1,4-dihydroquinoline-3-carboxylic Acid]
- activity at 10 µM (NCI-H522): 98.9%
- activity at 10 µM (CAKI-1): 99.2%
- Growth percentage (IGROV1): 115.9%
- activity at 10 µM (HL-60(TB)): 102%
- activity at 10 µM (A549/ATCC): 104%
- activity at 10 µM (NCI/ADR-RES): 108%
- activity at 10 µM (HOP-62): 95.6%
- Growth percentage (MALME-3M): 104.9%
- activity at 10 µM (MCF7): 94.2%
- activity at 10 µM (SK-MEL-28): 96.7%
- activity at 10 µM (SF-539): 86.4%
- activity at 10 µM (SNB-19): 102%
- activity at 10 µM (MDA-MB-468): 111%
- activity at 10 µM (CCRF-CEM): 96.2%
- Growth percentage (NCI-H322M): 105.5%
- activity at 10 µM (COLO 205): 118%
- activity at 10 µM (PC-3): 98.8%
- activity at 10 µM (HCT-15): 102%
- activity at 10 µM (NCI-H226): 117%
- activity at 10 µM (NCI-H460): 104%
- activity at 10 µM (K-562): 123%
- activity at 10 µM (LOX IMVI): 106%
- activity at 10 µM (HS 578T): 87.4%
- activity at 10 µM (OVCAR-8): 105%
- activity at 10 µM (U251): 114%
- activity at 10 µM (SK-MEL-2): 97.4%
- activity at 10 µM (SF-268): 103%
- activity at 10 µM (SN12C): 98%

Compound: Cc1nc(SCC(=O)N2CCN(c3cc4c(cc3F)c(=O)c(C(=O)O)cn4C3CC3)CC2)sc1C(=O)/C=C/c1ccc(N(C)C)cc1 [Compound 4i, (E)-1-Cyclopropyl-7-(4-(2-((5-(3-(4-(dimethylamino)phenyl)acryloyl)-4-methylthiazol-2-yl)thio)acetyl)piperazin-1-yl)-6-fluoro-4-oxo-1,4-dihydroquinoline-3-carboxylic Acid]
- activity at 10 µM (NCI-H522): 78.5%
- activity at 10 µM (CAKI-1): 81.7%
- activity at 10 µM (HL-60(TB)): 89.5%
- activity at 10 µM (A549/ATCC): 103%
- activity at 10 µM (NCI/ADR-RES): 97.1%
- activity at 10 µM (HOP-62): 105%
- activity at 10 µM (MCF7): 17.3%
- activity at 10 µM (SK-MEL-28): 95.9%
- activity at 10 µM (SF-539): 74.4%
- activity at 10 µM (SNB-19): 88.6%
- activity at 10 µM (MDA-MB-468): 87.6%
- activity at 10 µM (CCRF-CEM): 90.6%
- Growth percentage (MDA-MB231/ATCC): 73.1%
- activity at 10 µM (COLO 205): 117%
- activity at 10 µM (PC-3): 96.7%
- activity at 10 µM (HCT-15): 83.2%
- activity at 10 µM (NCI-H226): 100%
- activity at 10 µM (NCI-H460): 108%
- activity at 10 µM (K-562): 61.3%
- activity at 10 µM (LOX IMVI): 24.6%
- activity at 10 µM (HS 578T): 81.4%
- activity at 10 µM (OVCAR-8): 76.5%
- activity at 10 µM (U251): 48%
- activity at 10 µM (SK-MEL-2): 85.5%
- activity at 10 µM (SF-268): 140%
- activity at 10 µM (SN12C): 81.1%

Compound: COc1ccc(/C=C/C(=O)c2sc(SCC(=O)N3CCN(c4cc5c(cc4F)c(=O)c(C(=O)O)cn5C4CC4)CC3)nc2C)cc1 [Compound 4j, (E)-1-Cyclopropyl-6-fluoro-7-(4-(2-((5-(3-(4-methoxyphenyl)acryloyl)-4-methylthiazol-2-yl)thio)acetyl)piperazin-1-yl)-4-oxo-1,4-dihydroquinoline-3-carboxylic Acid]
- activity at 10 µM (NCI-H522): 99%
- activity at 10 µM (CAKI-1): 94.9%
- activity at 10 µM (HL-60(TB)): 101%
- activity at 10 µM (A549/ATCC): 105%
- activity at 10 µM (NCI/ADR-RES): 109%
- activity at 10 µM (HOP-62): 98.3%
- activity at 10 µM (MCF7): 93.3%
- activity at 10 µM (SK-MEL-28): 114%
- activity at 10 µM (SF-539): 97.5%
- activity at 10 µM (SNB-19): 103%
- activity at 10 µM (MDA-MB-468): 107%
- activity at 10 µM (CCRF-CEM): 110%
- Growth percentage (MDA-MB231/ATCC): 94.8%
- activity at 10 µM (COLO 205): 106%
- activity at 10 µM (PC-3): 107%
- activity at 10 µM (HCT-15): 104%
- activity at 10 µM (NCI-H226): 102%
- activity at 10 µM (NCI-H460): 106%
- activity at 10 µM (K-562): 98.3%
- activity at 10 µM (LOX IMVI): 97.9%
- activity at 10 µM (HS 578T): 96.4%
- activity at 10 µM (OVCAR-8): 94.6%
- activity at 10 µM (U251): 107%
- activity at 10 µM (SK-MEL-2): 104%
- activity at 10 µM (SF-268): 148%
- activity at 10 µM (SN12C): 96.2%

Compound: COc1cccc(/C=C/C(=O)c2sc(SCC(=O)N3CCN(c4cc5c(cc4F)c(=O)c(C(=O)O)cn5C4CC4)CC3)nc2C)c1OC [Compound 4k, (E)-1-Cyclopropyl-7-(4-(2-((5-(3-(2,3-dimethoxyphenyl)acryloyl)-4-methylthiazol-2-yl)thio)acetyl)piperazin-1-yl)-6-fluoro-4-oxo-1,4-dihydroquinoline-3-carboxylic Acid]
- activity at 10 µM (NCI-H522): 104%
- activity at 10 µM (CAKI-1): 107%
- Growth percentage (IGROV1): 101.3%
- IC50 (HL-60(TB); HL-60, leukemia HL-60): 2950 nM
- activity at 10 µM (A549/ATCC): 106%
- activity at 10 µM (NCI/ADR-RES): 112%
- activity at 10 µM (HOP-62): -20.2%
- Growth percentage (MALME-3M): 115.2%
- activity at 10 µM (SK-MEL-28): 100%
- activity at 10 µM (SNB-19): 87.2%
- activity at 10 µM (MDA-MB-468): 48.5%
- activity at 10 µM (CCRF-CEM): 72%
- Growth percentage (NCI-H322M): 114.8%
- activity at 10 µM (COLO 205): 126%
- activity at 10 µM (PC-3): 93.5%
- activity at 10 µM (HCT-15): 64.5%
- activity at 10 µM (NCI-H226): 102%
- activity at 10 µM (NCI-H460): 73.1%
- activity at 10 µM (K-562): 133%
- activity at 10 µM (LOX IMVI): 104%
- activity at 10 µM (HS 578T): 92.8%
- activity at 10 µM (OVCAR-8): 87.6%
- activity at 10 µM (U251): 103%
- activity at 10 µM (SK-MEL-2): 93.4%
- activity at 10 µM (SF-268): 109%
- activity at 10 µM (SN12C): 87.5%

— article PMC12655637, “Design, Synthesis, and Mechanistic Study of Novel Ciprofloxacin/Thiazole Chalcone Hybrids as Potential Anticancer Agents” (Pharmaceuticals, 2025)
